What was measured:
[1] = system: corneal epithelial defects in the eyes of New Zealand white rabbits; assay: Rabbit corneal epithelial debridement model with healing impaired by topical dexamethasone (Example 1); type: in vivo; conditions: for eyes with epithelial defect completely closed/healed by day 5: topical QID OU, all eyes on dexamethasone 0.1% QID, rHGH 100 μg/mL, 50 μL drop
Excerpt: A rabbit debridement model was used to assess the effect of topically applied rHGH on corneal epithelial defect closure in a model where epithelial closure was impaired by concomitantly administered topical steroids (Dexamethasone 0.1% QID). Standard epithelial defects were created in the eyes of nine New Zealand white rabbits by standard methods. Rabbits received topical dexamethasone QID (4×/day) to all 18 eyes. Rabbits were randomized to one of three treatment arms post surgery: a control arm of dexamethasone only QID OU (both eyes), a vehicle group of BSS (balanced salt solution) QID OU, and test article of rHGH QID OU. One drop (50 μL) of rHGH (reconstituted in Ringers Lactate to achieve a final concentration of 100 μg/mL) (n=3) was applied topically four times to both eyes. All eyes were also treated with one drop of an antibiotic solution after the surgical defect creation. Photographic assessment (twice daily) and fluorescein assessment were used to determine the speed and quality of epithelial defect closure. The corneal defect size was estimated in the photographs by obtaining the pixel count of the defect and dividing by the pixel count of the cornea. The animals were sacrificed on day 5.
The solid black bars represent percent of eyes completely healed when treated with rHGH administered topically whereas the shaded bars represent percent of eyes completely healed when treated with BSS (balanced saline solution). Over the course of this study, no eyes were completely healed when treated with dexamethasone alone.

[2] = system: corneal epithelial defects in New Zealand white rabbits; assay: Corneal epithelial impaired healing debridement model, rHGH in HYSTEM/GSSG gel (Example 3); type: in vivo; conditions: topical dexamethasone 0.1% 4x/day for 7 days; normal healing 4-5 days; some rabbits not completely closed at 7 days
Excerpt: A corneal epithelial impaired healing debridement model was developed by utilizing a validated epithelial debridement procedure and treating immediately postoperative with topical steroids (dexamethasone). The corneal epithelial defects were created surgically in a standardized and reproducible manner in both eyes. The normal healing for epithelial defects in normal healthy rabbits is 4-5 days. […] This model confirmed delayed epithelial wound healing in New Zealand white rabbits.
Rabbits were randomized post surgical intervention to maintain a masked study. The examiner was masked to the treatment arm.
Recombinant Human Growth Hormone (rHGH) was reconstituted and prepared as instructed, and was delivered topically to the eye via a crosslinked hyaluronic acid gel polymer HYSTEM (with glutathione GSSG) at a concentration of 4 ug/day in a 50 ul drop BID, for 7 days (see Example 2). The comparator arms are shown in Table 1: (1) the polymer HYSTEM with GSSG but without rHGH (group 1) and (2) dexamethasone alone (no polymer and no rHGH) (group 3). In vivo clinical exams were performed twice daily to determine percent corneal healing, corneal defect size, and percent of eyes (cornea) completely healed.

Molecule	eyes with epithelial defect completely closed/healed by day 5 [1]	time of healing of epithelial defects [2]	eyes starting to heal as quickly as Day 2 ([1]; Day 2, rHGH 100 μg/mL topical QID plus dexamethasone)	speed of epithelial defect closure (photographic assessment) ([1]; comparison of treatment arms over 5 days)	tolerability of dosing ([1]; topical ocular dosing QID, 5 days)
C[C@@H]1C[C@H]2[C@@H]3CCC4=CC(=O)C=C[C@]4(C)[C@@]3(F)[C@@H](O)C[C@]2(C)[C@@]1(O)C(=O)CO [dexamethasone, reference compound]	0/9	7 days	–	–	–
rHGH: Recombinant human growth hormone; hydrophilic 22 Kda protein of 191 amino acids; Genotropin used in Example 2	9/9	–	10%	most rapid healing	tolerated the dosing well without clinical concerns

Reference: patent publication US20140107025A1, “OCULAR DRUG DELIVERY SYSTEM” (priority 2012, published 2014)
